In patent US20050282743A1, “Molecular interactions in cells” (Arbor Vita Corporation, priority 2001, published 2005):
Where two headings read alike, the source gives them in different places. Peptide text beside a SMILES is read from it. * marks the point of attachment. Biotin = O=C1N[C@H]2[C@H](CS[C@H]2CCCCC(=O)*)N1

Assays:
Test in all cases: Apparent affinity (Kd) by titration of PL peptide in the G assay
Type in all cases: binding
[1] = target: T1, PDZ-domain polypeptide (GST/PDZ fusion protein) (Homo sapiens, UniProt Q92796); details: PDZ NeDLG
T1 construct: made in house; host or cells: E. coli (DH5alpha, BL21 or JM109)
T1 sequence (Q92796 1-817): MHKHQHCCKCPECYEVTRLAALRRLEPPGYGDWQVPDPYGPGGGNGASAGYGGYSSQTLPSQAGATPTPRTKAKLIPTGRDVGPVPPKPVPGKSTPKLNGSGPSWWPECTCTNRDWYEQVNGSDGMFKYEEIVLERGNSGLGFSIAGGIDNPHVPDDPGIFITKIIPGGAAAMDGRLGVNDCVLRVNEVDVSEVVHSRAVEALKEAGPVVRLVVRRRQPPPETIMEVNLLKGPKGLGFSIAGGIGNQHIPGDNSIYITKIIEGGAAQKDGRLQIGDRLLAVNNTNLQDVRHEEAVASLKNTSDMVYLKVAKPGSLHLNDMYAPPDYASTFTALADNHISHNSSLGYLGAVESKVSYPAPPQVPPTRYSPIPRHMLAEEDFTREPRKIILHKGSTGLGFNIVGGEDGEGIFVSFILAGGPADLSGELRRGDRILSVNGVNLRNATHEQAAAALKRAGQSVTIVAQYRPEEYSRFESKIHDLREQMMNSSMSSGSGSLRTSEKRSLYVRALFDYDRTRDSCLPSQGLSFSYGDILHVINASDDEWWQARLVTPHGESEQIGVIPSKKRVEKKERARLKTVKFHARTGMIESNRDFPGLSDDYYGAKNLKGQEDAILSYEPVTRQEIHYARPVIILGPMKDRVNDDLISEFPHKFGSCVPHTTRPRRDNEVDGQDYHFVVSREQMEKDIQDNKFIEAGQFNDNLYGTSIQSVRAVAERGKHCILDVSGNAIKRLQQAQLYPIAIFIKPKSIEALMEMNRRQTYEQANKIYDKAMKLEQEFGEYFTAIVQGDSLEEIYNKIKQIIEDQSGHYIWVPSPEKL
In short: (§1)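 A fixed concentration of GST/PDZ fusion protein, 5 ug/ml by default, was mixed in solution with increasing labeled PL peptide (e.g. 0.1 uM-1 mM). Reaction times ranged from 10 minutes to 2 days at 4-37° C. Complexes were separated from free peptide and detected via the label as in the G assay, apparent affinity coming from the saturating concentration.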

[2] = target: T2, PDZ-domain polypeptide (GST/PDZ fusion protein) (Homo sapiens, UniProt Q02410); details: Peptide Optimal Conc (Kd by titration of the PL peptide), PDZ Mint 1, PDZ Domain 1, 2
T2 construct: made in house; host or cells: E. coli (DH5alpha, BL21 or JM109)
T2 sequence (Q02410 1-837): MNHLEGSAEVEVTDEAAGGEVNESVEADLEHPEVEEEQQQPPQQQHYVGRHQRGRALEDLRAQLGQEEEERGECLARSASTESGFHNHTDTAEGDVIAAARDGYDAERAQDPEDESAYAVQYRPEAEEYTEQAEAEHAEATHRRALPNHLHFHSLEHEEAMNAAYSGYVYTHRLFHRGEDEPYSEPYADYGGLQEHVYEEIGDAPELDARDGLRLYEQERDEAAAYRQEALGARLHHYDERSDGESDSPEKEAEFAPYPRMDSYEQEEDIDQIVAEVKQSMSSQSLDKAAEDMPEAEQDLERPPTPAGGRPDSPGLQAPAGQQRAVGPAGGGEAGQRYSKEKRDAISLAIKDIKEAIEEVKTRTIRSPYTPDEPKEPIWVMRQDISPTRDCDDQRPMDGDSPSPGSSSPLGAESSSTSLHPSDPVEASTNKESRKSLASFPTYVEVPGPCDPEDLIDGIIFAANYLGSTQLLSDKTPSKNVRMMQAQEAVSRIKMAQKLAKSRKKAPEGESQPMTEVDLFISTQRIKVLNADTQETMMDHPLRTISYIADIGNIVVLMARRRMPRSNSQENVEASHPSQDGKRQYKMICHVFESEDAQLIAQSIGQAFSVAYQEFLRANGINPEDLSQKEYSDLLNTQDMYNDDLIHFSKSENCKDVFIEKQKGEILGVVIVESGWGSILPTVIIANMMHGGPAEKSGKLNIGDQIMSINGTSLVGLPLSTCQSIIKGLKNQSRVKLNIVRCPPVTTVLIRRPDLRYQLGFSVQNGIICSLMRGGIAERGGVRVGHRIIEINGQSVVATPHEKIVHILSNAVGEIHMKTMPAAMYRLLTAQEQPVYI
In short: as §1

[3] = target: T3, PDZ-domain polypeptide (GST/PDZ fusion protein) (Homo sapiens, UniProt O75970)
T3 construct: made in house; host or cells: E. coli (DH5alpha, BL21 or JM109)
In short: as §1

[4] = target: T4, PDZ-domain polypeptide (GST/PDZ fusion protein) (Homo sapiens, UniProt Q6P0Q8); details: PDZ KIAA0807(S), PDZ Domain 1; Protein Optimal Conc 5; read-out: Peptide Optimal Conc (Kd by titration of the PL peptide)
T4 construct: made in house; host or cells: E. coli (DH5alpha, BL21 or JM109)
In short: as §1

[5] = target: T5, PDZ-domain polypeptide (GST/PDZ fusion protein) (Homo sapiens, UniProt Q86UL8); details: PDZ atrophin-1 interacting Protein, read-out: Peptide Optimal Conc (Kd by titration of the PL peptide)
T5 construct: made in house; host or cells: E. coli (DH5alpha, BL21 or JM109)
In short: as §1

T3 sequence (O75970 whole entry, the tested form may be a part): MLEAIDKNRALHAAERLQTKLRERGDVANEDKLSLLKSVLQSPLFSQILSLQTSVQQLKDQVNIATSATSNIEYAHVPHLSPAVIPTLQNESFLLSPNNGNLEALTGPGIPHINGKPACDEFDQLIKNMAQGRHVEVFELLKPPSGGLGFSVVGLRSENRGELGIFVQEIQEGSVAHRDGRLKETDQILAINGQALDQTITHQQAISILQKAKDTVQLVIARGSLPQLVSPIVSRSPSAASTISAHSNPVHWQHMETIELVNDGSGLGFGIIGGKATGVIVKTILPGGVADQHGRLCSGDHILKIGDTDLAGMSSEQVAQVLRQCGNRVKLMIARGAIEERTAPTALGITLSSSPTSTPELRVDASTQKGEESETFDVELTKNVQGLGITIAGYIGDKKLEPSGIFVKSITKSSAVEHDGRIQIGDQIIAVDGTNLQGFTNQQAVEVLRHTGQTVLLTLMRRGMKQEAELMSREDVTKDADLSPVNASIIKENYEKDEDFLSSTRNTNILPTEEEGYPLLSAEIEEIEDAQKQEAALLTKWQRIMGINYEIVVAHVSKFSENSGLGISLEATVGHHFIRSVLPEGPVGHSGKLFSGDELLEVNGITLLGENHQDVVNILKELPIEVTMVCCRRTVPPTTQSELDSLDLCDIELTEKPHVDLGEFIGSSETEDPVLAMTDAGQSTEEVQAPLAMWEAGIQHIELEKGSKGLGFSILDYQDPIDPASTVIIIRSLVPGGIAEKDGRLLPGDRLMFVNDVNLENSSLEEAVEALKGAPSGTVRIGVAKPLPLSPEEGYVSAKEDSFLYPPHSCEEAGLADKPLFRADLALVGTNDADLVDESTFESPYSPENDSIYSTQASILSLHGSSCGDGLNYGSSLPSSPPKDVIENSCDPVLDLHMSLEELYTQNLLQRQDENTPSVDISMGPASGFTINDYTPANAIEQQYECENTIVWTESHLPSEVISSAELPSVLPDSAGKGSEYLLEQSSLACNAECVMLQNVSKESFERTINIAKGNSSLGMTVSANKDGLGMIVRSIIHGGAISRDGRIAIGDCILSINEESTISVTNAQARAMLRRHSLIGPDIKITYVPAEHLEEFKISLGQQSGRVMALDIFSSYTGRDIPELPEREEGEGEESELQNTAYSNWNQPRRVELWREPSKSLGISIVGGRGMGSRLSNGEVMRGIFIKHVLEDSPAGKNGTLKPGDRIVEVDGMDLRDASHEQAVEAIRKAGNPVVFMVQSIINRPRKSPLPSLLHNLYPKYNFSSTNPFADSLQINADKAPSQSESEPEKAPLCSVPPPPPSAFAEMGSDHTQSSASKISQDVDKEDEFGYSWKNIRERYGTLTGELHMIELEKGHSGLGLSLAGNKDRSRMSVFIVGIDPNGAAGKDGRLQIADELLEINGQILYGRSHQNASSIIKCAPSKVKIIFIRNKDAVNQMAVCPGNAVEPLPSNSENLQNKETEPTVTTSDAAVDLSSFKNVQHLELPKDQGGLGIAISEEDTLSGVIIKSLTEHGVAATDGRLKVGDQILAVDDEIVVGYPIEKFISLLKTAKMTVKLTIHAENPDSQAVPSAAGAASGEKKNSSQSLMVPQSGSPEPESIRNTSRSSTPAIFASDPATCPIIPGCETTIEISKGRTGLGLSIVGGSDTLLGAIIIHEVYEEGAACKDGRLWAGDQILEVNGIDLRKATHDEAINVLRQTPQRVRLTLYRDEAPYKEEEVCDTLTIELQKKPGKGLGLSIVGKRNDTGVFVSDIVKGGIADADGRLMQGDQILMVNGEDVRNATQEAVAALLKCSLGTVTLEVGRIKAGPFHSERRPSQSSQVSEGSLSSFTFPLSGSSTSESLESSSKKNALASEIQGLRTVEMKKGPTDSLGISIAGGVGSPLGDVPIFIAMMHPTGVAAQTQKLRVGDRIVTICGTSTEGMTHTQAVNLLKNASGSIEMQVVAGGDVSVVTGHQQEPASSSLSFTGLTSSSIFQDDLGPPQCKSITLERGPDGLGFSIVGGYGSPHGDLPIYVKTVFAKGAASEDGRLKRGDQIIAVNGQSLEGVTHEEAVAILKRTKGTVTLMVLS
T5 sequence (Q86UL8 whole entry, the tested form may be a part): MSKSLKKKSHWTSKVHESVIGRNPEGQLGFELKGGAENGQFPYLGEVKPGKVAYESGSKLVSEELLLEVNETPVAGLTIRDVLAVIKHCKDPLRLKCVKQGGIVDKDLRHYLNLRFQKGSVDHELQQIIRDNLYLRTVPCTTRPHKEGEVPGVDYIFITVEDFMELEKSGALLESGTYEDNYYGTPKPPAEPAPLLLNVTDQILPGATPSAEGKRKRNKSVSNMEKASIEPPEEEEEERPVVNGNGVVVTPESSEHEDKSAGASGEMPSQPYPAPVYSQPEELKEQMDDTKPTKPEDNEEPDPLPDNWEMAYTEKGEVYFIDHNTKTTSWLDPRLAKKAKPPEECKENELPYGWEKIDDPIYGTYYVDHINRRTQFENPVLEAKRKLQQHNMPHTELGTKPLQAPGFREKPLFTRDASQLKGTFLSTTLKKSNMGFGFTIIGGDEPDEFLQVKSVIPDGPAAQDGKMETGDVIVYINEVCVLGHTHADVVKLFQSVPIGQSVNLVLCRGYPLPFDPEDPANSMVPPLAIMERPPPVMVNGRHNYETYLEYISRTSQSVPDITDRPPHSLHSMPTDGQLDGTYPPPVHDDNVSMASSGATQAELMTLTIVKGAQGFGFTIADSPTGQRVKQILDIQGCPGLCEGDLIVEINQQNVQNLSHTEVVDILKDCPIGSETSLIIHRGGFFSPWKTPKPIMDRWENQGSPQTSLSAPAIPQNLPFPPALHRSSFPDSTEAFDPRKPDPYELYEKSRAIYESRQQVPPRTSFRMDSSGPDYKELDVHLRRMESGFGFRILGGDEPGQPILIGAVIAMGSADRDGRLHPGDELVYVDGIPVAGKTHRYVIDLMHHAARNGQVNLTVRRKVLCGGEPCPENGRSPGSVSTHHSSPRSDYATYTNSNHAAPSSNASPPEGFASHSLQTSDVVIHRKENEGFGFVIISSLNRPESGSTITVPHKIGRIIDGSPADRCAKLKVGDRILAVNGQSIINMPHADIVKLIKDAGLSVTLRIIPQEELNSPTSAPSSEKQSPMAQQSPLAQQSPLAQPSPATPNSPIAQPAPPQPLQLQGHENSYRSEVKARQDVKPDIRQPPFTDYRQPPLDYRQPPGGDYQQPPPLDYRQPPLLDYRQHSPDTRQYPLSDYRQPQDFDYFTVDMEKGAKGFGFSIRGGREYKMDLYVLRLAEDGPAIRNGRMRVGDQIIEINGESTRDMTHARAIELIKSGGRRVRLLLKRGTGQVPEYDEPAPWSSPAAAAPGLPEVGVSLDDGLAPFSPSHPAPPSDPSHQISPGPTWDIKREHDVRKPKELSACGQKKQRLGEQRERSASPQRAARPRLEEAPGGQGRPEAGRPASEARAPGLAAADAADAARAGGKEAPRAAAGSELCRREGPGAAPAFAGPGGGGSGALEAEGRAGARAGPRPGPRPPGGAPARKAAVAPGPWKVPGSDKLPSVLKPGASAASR

CC[C@H](C)[C@H](NC(=O)[C@H](CO)NC(=O)[C@@H](NC(=O)[C@H](Cc1ccccc1)NC(=O)[C@H](CO)NC(=O)CCCC[C@@H]1SC[C@@H]2NC(=O)N[C@@H]21)[C@@H](C)O)C(=O)N[C@@H](CC(C)C)C(=O)N[C@H](C(=O)N[C@@H](CS)C(=O)N[C@@H](Cc1c[nH]cn1)C(=O)N[C@@H](CCC(N)=O)C(=O)N[C@@H](CCCNC(=N)N)C(=O)N[C@@H](CCCNC(=N)N)C(=O)N[C@H](C(=O)N[C@@H](CCC(N)=O)C(=O)N[C@@H](CCCNC(=N)N)C(=O)N[C@@H](CCCCN)C(=O)N[C@@H](CCC(=O)O)C(=O)N[C@H](C(=O)N[C@H](C(=O)N[C@@H](C)C(=O)O)C(C)C)[C@@H](C)O)[C@@H](C)O)[C@@H](C)O [GluR5-2 (rat)]
Kd ([1]; PDZ Domain 1, 2, titration of the PL peptide, read-out: Peptide Optimal Conc (Kd, dissociation constant)): 100 nM

CC[C@H](C)[C@H](NC(=O)[C@H](C)NC(=O)[C@H](CC(C)C)NC(=O)[C@H](Cc1c[nH]c2ccccc12)NC(=O)[C@H](Cc1c[nH]cn1)NC(=O)[C@H](CCC(N)=O)NC(=O)[C@H](CC(C)C)NC(=O)[C@H](CCC(N)=O)NC(=O)[C@H](Cc1ccccc1)NC(=O)[C@H](CCC(N)=O)NC(=O)[C@H](CCCNC(=N)N)NC(=O)[C@@H](NC(=O)[C@H](CC(=O)O)NC(=O)[C@H](CCCNC(=N)N)NC(=O)[C@H](CCC(N)=O)NC(=O)[C@H](C)NC(=O)[C@@H](NC(=O)[C@H](CC(C)C)NC(=O)[C@H](Cc1c[nH]cn1)NC(=O)[C@H](Cc1c[nH]cn1)NC(=O)CCCC[C@@H]1SC[C@@H]2NC(=O)N[C@@H]21)C(C)C)[C@@H](C)CC)C(=O)O [noradrenaline transporter] (Biotin-HHLVAQRDIRQFQLQHWLAI-OH; C-terminus assumed)
Kd [2]: 500 nM
Kd ([3]; Peptide Optimal Conc (Kd by titration of the PL peptide), PDZ MUPP-1, PDZ Domain 3): 400 nM
Kd ([3]; Peptide Optimal Conc (Kd by titration of the PL peptide), PDZ MUPP-1, PDZ Domain 7): 800 nM
Kd ([3]; Peptide Optimal Conc (Kd by titration of the PL peptide), PDZ MUPP-1, PDZ Domain 9): 700 nM

CC(C)C[C@H](NC(=O)[C@H](C)NC(=O)[C@H](CO)NC(=O)CNC(=O)[C@@H](NC(=O)CCCC[C@@H]1SC[C@@H]2NC(=O)N[C@@H]21)[C@@H](C)O)C(=O)N[C@@H](CCC(N)=O)C(=O)N[C@@H](C)C(=O)N[C@@H](Cc1c[nH]c2ccccc12)C(=O)N[C@@H](CCCNC(=N)N)C(=O)N[C@@H](Cc1c[nH]cn1)C(=O)N[C@H](C(=O)N[C@@H](CO)C(=O)N[C@@H](CCCNC(=N)N)C(=O)N[C@@H](CCC(N)=O)C(=O)N[C@@H](C)C(=O)N[C@H](C(=O)N[C@@H](CCC(=O)O)C(=O)N[C@@H](CO)C(=O)N[C@H](C(=O)N[C@H](C(=O)O)C(C)C)[C@@H](C)O)[C@@H](C)O)[C@@H](C)O [HPV E6 #66 (modified)] (Biotin-TGSALQAWRHTSRQATESTV-OH; C-terminus assumed)
Kd ([1]; PDZ Domain 1, 2, read-out: Peptide Optimal Conc (Kd by titration of the PL peptide)): 1000 nM
Kd ([1]; PDZ Domain 2, read-out: Peptide Optimal Conc (Kd by titration of the PL peptide)): 3500 nM

CC[C@H](C)[C@H](NC(=O)[C@H](CCCCN)NC(=O)[C@@H](NC(=O)[C@H](CO)NC(=O)[C@@H]1CCCN1C(=O)[C@H](Cc1ccccc1)NC(=O)[C@@H](NC(=O)[C@@H](NC(=O)[C@H](CCCNC(=N)N)NC(=O)[C@H](CCC(=O)O)NC(=O)[C@H](CC(C)C)NC(=O)[C@H](CC(C)C)NC(=O)[C@H](CC(C)C)NC(=O)[C@@H](NC(=O)CNC(=O)[C@@H](NC(=O)CCCC[C@@H]1SC[C@@H]2NC(=O)N[C@@H]21)C(C)C)[C@@H](C)O)C(C)C)[C@@H](C)CC)C(C)C)C(=O)N[C@@H](C)C(=O)N[C@H](C(=O)N[C@@H](CC(C)C)C(=O)N[C@H](C(=O)O)C(C)C)[C@@H](C)O [Adenovirus E4 Type9]
Kd ([1]; PDZ Domain 2, Protein Optimal Conc 5, read-out: Peptide Optimal Conc (Kd by titration of the PL peptide)): 100 nM
Kd [4]: 200 nM
Kd ([5]; PDZ Domain 1, Protein Optimal Conc 0.5): 20 nM
Kd ([5]; PDZ Domain 3, Protein Optimal Conc 5): 100 nM
Kd ([3]; PDZ MUPP-1, PDZ Domain 11, Protein Optimal Conc 5, read-out: Peptide Optimal Conc (Kd by titration of the PL peptide)): 100 nM
